In paper PMC9571063 (Molecules, 2022):
Read-outs that look alike come from different tables or passages of the source.

Assays:
HsDYRK1A = target: T1, HsDYRK1A (Homo sapiens, UniProt Q13627); assay: ADP-Glo kinase assay; assay type: biochemical; conditions: n=2, read-out: % of residual activity Hs_DYRK1A
T1 construct: host or cells: Sf9 insect cells (baculovirus)

MmCLK1 = target: T2, MmCLK1 (Mus musculus, UniProt P22518); assay: ADP-Glo kinase assay; assay type: biochemical; conditions: for remaining activity at 1 µM / remaining activity at 10 µM: n=2, read-out: % of residual activity Mm_CLK1; for IC50: mouse CLK1 orthologue, read-out: IC50 MmCLK1
T2 construct: host or cells: bacteria
T2 sequence (P22518 whole entry): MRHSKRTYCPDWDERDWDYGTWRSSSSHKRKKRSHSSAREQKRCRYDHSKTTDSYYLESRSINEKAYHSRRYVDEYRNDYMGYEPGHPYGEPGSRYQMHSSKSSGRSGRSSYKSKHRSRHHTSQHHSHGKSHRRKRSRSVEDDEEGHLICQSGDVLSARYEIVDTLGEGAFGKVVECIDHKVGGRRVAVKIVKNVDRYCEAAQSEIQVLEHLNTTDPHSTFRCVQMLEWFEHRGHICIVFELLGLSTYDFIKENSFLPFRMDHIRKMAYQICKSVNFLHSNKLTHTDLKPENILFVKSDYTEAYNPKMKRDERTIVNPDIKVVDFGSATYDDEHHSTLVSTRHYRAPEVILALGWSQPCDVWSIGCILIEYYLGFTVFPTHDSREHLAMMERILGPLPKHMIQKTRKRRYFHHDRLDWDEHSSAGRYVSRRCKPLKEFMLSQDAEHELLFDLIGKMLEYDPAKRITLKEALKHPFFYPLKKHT

Hs_CDK5/p25 = target: T3, Hs_CDK5/p25 (Homo sapiens, UniProt Q00535); assay: ADP-Glo kinase assay, primary screen; assay type: biochemical; conditions: n=2, read-out: % of residual activity Hs_CDK5/p25
T3 construct: host or cells: bacteria
T3 sequence (Q00535 whole entry): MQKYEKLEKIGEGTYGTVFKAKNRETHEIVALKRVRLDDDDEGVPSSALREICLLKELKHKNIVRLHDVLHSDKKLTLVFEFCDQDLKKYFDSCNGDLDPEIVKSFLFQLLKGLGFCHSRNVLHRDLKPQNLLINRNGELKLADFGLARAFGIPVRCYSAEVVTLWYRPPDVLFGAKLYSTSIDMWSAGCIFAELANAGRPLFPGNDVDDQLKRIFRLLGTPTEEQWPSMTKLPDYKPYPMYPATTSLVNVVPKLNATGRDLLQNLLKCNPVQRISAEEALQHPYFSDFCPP
T3 sequence (Q15078 99-307 partner limits assumed): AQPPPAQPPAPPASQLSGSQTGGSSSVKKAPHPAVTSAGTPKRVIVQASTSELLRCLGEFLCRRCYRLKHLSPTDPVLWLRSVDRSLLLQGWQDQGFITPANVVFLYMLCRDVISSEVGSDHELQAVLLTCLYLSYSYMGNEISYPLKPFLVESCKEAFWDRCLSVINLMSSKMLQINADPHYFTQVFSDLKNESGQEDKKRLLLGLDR

Hs_CDK9/CyclinT = target: T4, Hs_CDK9/CyclinT (Homo sapiens, UniProt P50750); assay: ADP-Glo kinase assay, primary screen; assay type: biochemical; conditions: n=2, read-out: % of residual activity Hs_CDK9/CyclinT
T4 construct: host or cells: Sf9 insect cells (baculovirus)
T4 sequence (P50750 whole entry): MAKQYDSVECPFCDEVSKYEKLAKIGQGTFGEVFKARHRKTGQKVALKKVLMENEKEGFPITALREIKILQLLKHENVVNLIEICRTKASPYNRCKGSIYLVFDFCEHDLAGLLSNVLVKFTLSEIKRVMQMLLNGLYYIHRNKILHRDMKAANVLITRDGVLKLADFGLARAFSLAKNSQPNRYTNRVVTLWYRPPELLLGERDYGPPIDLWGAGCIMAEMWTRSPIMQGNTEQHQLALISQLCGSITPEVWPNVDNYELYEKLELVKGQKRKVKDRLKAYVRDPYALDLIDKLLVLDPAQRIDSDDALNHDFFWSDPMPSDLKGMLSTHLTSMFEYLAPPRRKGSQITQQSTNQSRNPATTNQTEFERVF
T4 sequence (O60563 whole entry partner): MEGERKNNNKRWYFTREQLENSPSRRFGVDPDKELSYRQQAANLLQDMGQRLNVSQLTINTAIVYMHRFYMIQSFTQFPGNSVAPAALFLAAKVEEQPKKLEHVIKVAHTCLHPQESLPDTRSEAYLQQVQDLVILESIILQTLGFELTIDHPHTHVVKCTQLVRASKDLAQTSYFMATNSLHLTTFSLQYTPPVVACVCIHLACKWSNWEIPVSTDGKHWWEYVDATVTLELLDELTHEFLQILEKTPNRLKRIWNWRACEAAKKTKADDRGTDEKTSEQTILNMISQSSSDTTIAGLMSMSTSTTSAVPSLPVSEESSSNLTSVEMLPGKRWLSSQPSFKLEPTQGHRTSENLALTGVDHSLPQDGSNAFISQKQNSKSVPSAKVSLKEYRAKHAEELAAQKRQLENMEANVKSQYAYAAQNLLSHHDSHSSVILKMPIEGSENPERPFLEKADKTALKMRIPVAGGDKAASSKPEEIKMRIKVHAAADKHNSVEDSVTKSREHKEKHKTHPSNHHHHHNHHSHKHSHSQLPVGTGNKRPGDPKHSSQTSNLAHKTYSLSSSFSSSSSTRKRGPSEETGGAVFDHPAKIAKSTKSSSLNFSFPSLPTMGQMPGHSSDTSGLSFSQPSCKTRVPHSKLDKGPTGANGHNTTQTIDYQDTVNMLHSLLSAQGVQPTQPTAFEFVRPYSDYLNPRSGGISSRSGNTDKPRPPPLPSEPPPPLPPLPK

Hs_PIM1 = target: T5, Hs_PIM1 (Homo sapiens, UniProt P11309); assay: ADP-Glo kinase assay, primary screen; assay type: biochemical; conditions: n=2, read-out: % of residual activity Hs_PIM1
T5 construct: host or cells: Sf9 insect cells (baculovirus)
T5 sequence (P11309 whole entry): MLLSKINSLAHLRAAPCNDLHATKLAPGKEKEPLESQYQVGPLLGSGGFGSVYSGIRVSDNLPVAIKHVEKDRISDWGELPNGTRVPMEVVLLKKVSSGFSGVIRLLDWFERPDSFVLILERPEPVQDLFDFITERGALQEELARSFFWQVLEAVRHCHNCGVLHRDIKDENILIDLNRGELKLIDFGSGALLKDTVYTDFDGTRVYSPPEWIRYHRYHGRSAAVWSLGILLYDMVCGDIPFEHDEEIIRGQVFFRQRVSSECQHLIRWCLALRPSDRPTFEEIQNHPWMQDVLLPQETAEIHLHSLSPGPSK

Rn_DYRK1A = target: T6, Rn_DYRK1A (Rattus norvegicus, UniProt Q63470); assay: ADP-Glo kinase assay, primary screen; assay type: biochemical; conditions: n=2, read-out: % of residual activity Rn_DYRK1A
T6 construct: host or cells: bacteria

Hs_HASPIN = target: T7, Hs_HASPIN (Homo sapiens, UniProt Q8TF76); assay: ADP-Glo kinase assay, primary screen; assay type: biochemical; conditions: n=2, read-out: % of residual activity Hs_HASPIN
T7 construct: host or cells: bacteria
T7 sequence (Q8TF76 1-798): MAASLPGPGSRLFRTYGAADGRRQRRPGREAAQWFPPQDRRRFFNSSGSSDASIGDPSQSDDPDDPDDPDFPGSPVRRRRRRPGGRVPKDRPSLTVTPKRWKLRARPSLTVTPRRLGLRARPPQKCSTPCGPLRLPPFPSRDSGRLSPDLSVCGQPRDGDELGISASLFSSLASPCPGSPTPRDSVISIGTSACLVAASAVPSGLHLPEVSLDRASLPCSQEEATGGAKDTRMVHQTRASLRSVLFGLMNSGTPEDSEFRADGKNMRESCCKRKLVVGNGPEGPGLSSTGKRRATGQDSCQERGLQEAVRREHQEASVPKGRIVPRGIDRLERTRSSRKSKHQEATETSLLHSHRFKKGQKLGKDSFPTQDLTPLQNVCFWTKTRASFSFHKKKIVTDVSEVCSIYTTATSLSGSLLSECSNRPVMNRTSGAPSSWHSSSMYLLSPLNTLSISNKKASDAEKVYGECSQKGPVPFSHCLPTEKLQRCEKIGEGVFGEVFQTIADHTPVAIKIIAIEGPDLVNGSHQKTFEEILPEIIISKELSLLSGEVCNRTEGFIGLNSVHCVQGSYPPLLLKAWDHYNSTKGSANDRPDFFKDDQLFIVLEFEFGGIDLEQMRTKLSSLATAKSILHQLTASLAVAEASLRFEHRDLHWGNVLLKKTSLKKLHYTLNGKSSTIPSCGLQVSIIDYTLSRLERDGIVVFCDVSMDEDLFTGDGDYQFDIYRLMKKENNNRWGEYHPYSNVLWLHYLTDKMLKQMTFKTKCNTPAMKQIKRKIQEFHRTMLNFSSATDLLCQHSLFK

Hs_GSK3β = target: T8, Hs_GSK3β (Homo sapiens, UniProt P49841); assay: ADP-Glo kinase assay, primary screen; assay type: biochemical; conditions: n=2, read-out: % of residual activity Hs_GSK3β
T8 construct: host or cells: Sf9 insect cells (baculovirus)
T8 sequence (P49841 whole entry): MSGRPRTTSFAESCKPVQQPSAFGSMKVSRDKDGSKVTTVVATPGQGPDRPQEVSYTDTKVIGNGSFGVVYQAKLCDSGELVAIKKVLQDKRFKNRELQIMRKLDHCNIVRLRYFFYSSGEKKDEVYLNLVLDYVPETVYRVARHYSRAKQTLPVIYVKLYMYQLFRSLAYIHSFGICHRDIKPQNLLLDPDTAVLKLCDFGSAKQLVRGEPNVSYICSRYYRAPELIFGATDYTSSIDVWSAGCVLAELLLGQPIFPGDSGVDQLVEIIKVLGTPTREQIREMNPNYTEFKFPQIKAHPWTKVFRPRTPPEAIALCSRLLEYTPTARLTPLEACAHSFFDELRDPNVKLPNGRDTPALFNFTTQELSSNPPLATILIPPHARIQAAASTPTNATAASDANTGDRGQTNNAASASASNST

Hs_CK1ε = target: T9, Hs_CK1ε (Homo sapiens, UniProt P49674); assay: ADP-Glo kinase assay, primary screen; assay type: biochemical; conditions: n=2, read-out: % of residual activity Hs_CK1ε
T9 construct: host or cells: Sf9 insect cells (baculovirus)
T9 sequence (P49674 whole entry): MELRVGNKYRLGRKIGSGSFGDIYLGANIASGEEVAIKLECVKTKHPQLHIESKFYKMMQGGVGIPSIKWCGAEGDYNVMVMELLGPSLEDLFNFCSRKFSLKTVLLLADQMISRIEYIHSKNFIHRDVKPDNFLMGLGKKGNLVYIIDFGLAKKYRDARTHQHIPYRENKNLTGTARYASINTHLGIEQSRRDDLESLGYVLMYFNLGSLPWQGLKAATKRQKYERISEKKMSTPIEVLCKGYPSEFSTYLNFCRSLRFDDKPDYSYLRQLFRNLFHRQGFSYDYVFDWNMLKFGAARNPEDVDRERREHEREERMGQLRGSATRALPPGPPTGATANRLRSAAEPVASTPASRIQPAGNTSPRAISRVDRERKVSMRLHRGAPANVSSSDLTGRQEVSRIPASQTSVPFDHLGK

[1] = cytotoxic assay, nuclei count (Hoechst, HCS); assay type: cell-based; conditions: human, HuH7 cells (hepatocellular carcinoma); 48 h treatment; read-out: Cytotoxic studies IC50 HuH7
[2] = cytotoxic assay, nuclei count (Hoechst, HCS); assay type: cell-based; conditions: human, Caco-2 cells (colorectal adenocarcinoma); 48 h treatment; read-out: Cytotoxic studies IC50 Caco2
[3] = cytotoxic assay, nuclei count (Hoechst, HCS); assay type: cell-based; conditions: human, MDA-MB-231 cells (breast carcinoma); 48 h treatment; read-out: Cytotoxic studies IC50 MDA-MB-231
[4] = cytotoxic assay, nuclei count (Hoechst, HCS); assay type: cell-based; conditions: human, 48 h treatment
Procedure: (§1) To complete our study, we performed a cytotoxicity screening of the 15 molecules, investigating 7 representative cancer cell lines. The compound’s effect on cell viability was evaluated on Huh-7 (hepatocellular carcinoma), CaCo2, HCT-116 (colorectal adenocarcinoma), MCF7, MDA-MB231, MDA-MB468 (breast carcinoma), PC3 (prostate carcinoma) and NCI-H727 (lung carcinoid). Human skin fibroblasts were used as reference for non-cancerous cells. Roscovitine, Doxorubicin and Taxol were used as positive controls. The cells were treated for 48 h with 25 µM compounds and fixed in cooled 90% ethanol/5% acetic acid for 20 min. The nuclei were stained with Hoechst 33342 and counted using HCS technology.
(§2) HuH7, CaCo-2, MDA-MB-231, HCT116, PC3, MCF7 and NCI-H727 cancer cell lines were obtained from the ECACC collection (Porton Down, UK). Cells were grown at 37 °C, 5% CO2 in ECACC recommended media: DMEM for HuH7, MDA-MB-231 and fibroblast, EMEM for MCF7and CaCo-2, McCoy’s for HCT116 and RPMI for PC3 and NCI-H727. All culture media were supplemented with 10% of FBS, 1% of penicillin-streptomycin and 2 mM glutamine.
(§3) Chemicals were solubilized in DMSO at a concentration of 10 mM (stock solution) and diluted in culture medium to the desired final concentrations.
[…] Cells were plated in 96 wells plates (4000 cells/well). Twenty-four hours after seeding, cells were exposed to chemicals. After 48 h of treatment, cells were washed in PBS and fixed in cooled 90% ethanol/5% acetic acid for 20 min and the nuclei were stained with Hoechst 33342 (B2261 Sigma). Image acquisition and analysis were performed using a CellomicsArrayScan VTI/HCS Reader (ThermoScientific, Waltham, MA, USA). The survival percentages were calculated as the percentage of cell number after compound treatment over cell number after DMSO treatment.

[5] = cytotoxic assay, nuclei count (Hoechst, HCS); assay type: cell-based; conditions: human, MCF7 cells (breast carcinoma); 48 h treatment; read-out: Cytotoxic studies IC50 MCF7
Procedure: as §1, §2, §3
(§4) The cytotoxic assay of chemical was performed at 25 µM. Cells were plated in 96 wells plates (4000 cells/well). Twenty-four hours after seeding, cells were exposed to chemicals. After 48 h of treatment, cells were washed in PBS and fixed in cooled 90% ethanol/5% acetic acid for 20 min and the nuclei were stained with Hoechst 33342 (B2261 Sigma). Image acquisition and analysis were performed using a CellomicsArrayScan VTI/HCS Reader (ThermoScientific, Waltham, MA, USA). The survival percentages were calculated as the percentage of cell number after compound treatment over cell number after DMSO treatment.

[6] = cytotoxic assay, nuclei count (Hoechst, HCS); assay type: cell-based, human; conditions: human, human skin fibroblasts (non-cancerous reference cells); 48 h treatment; some cells add low/moderate/high amplitude; read-out: Cytotoxic studies IC50 Fibroblasts
Procedure: as §1, §2, §3, §4

Human skin fibroblasts = assay: cytotoxic assay, nuclei count (Hoechst, HCS); assay type: cell-based; conditions: summary of Table S2
Procedure: as §1, §2, §3, §4

HsCLK1 = target: T10, HsCLK1 (Homo sapiens, UniProt P49759); assay: ADP-Glo kinase assay; assay type: biochemical
T10 construct: host or cells: Sf9 insect cells (baculovirus)
T10 sequence (P49759 whole entry): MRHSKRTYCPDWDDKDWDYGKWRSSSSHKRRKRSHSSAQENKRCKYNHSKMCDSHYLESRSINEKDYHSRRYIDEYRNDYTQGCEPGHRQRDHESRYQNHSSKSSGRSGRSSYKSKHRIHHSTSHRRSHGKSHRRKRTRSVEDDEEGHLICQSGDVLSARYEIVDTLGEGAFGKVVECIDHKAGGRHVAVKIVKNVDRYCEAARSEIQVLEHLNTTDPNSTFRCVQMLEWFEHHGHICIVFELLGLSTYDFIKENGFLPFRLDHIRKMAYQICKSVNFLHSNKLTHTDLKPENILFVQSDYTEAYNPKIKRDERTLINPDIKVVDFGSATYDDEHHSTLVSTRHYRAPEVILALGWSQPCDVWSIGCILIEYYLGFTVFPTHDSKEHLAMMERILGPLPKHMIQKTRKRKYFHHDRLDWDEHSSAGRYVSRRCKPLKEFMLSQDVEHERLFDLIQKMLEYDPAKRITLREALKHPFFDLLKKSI

[7] = HCT116 cells (colorectal adenocarcinoma), read-out: Cytotoxic studies IC50 HCT116
[8] = MDA-MB-468 cells (breast carcinoma), read-out: Cytotoxic studies IC50 MDA-MB-468

SMILES: O=[N+]([O-])c1cc(O)ccc1-n1cc(COc2cccc3cnc(Nc4cccc(Cl)c4)nc23)nn1 [12c, N-(3-Chlorophenyl)-8-((1-(4-hydroxy-2-nitrophenyl)-1H-1,2,3-triazol-4-yl)methoxy)quinazolin-2-amine]
- remaining activity at 1 µM (HsDYRK1A): ≥ 100%
- remaining activity at 10 µM (HsDYRK1A): 60%
- remaining activity at 1 µM (MmCLK1): 36%
- remaining activity at 10 µM (MmCLK1): 20%
- IC50 (MmCLK1): 0.177 µM
- remaining activity at 1 µM (Hs_CDK5/p25): 71%
- remaining activity at 10 µM (Hs_CDK5/p25): 30%
- remaining activity at 1 µM (Hs_CDK9/CyclinT): 58%
- remaining activity at 10 µM (Hs_CDK9/CyclinT): 39%
- remaining activity at 1 µM (Hs_PIM1): 59%
- remaining activity at 10 µM (Hs_PIM1): 68%
- remaining activity at 1 µM (Rn_DYRK1A): 81%
- remaining activity at 10 µM (Rn_DYRK1A): 45%
- remaining activity at 1 µM (Hs_HASPIN): 83%
- remaining activity at 10 µM (Hs_HASPIN): 88%
- remaining activity at 1 µM (Hs_GSK3β): 89%
- remaining activity at 10 µM (Hs_GSK3β): 60%
- remaining activity at 1 µM (Hs_CK1ε): 94%
- remaining activity at 10 µM (Hs_CK1ε): 81%
- IC50 at 48 h [1]: 5 µM
- IC50 at 48 h [2]: 24 µM
- IC50 at 48 h [3]: 19 µM
- IC50 at 48 h [4, 7]: 1.3 µM
- IC50 at 48 h [4, 8]: 4 µM
- IC50 at 48 h [5]: 9 µM
- IC50 at 48 h [6]: 6 µM
- toxicity towards fibroblasts (Human skin fibroblasts): moderate toxicity

SMILES: Cc1ccc(-n2cc(COc3cccc4cnc(Nc5ccccc5)nc34)nn2)c([N+](=O)[O-])c1 [7a, N-Phenyl-8-((1-(4-methyl-2-nitrophenyl)-1H-1,2,3-triazol-4-yl)methoxy)quinazolin-2-amine]
- IC50 (HsCLK1; 10 µM ATP, duplicate, read-out: IC50 HsCLK1): 1.1 µM
- times less active than DB18 on human CLK1 (HsCLK1; ratio of IC50 1100 and […] nM): 100 times
- remaining activity at 1 µM (HsDYRK1A): ≥ 100%
- remaining activity at 10 µM (HsDYRK1A): 92%
- remaining activity at 1 µM (MmCLK1): 43%
- remaining activity at 10 µM (MmCLK1): 30%
- IC50 (MmCLK1): 0.466 µM
- remaining activity at 1 µM (Hs_CDK5/p25): ≥ 100%
- remaining activity at 10 µM (Hs_CDK5/p25): 65%
- remaining activity at 1 µM (Hs_CDK9/CyclinT): 55%
- remaining activity at 10 µM (Hs_CDK9/CyclinT): 45%
- remaining activity at 1 µM (Hs_PIM1): 81%
- remaining activity at 10 µM (Hs_PIM1): 60%
- remaining activity at 1 µM (Rn_DYRK1A): 56%
- remaining activity at 10 µM (Rn_DYRK1A): 90%
- remaining activity at 1 µM (Hs_HASPIN): 95%
- remaining activity at 10 µM (Hs_HASPIN): 94%
- remaining activity at 1 µM (Hs_GSK3β): 87%
- remaining activity at 10 µM (Hs_GSK3β): 70%
- remaining activity at 1 µM (Hs_CK1ε): 93%
- remaining activity at 10 µM (Hs_CK1ε): 89%
- IC50 at 48 h [1]: 3 µM
- IC50 at 48 h [3]: 9 µM
- IC50 at 48 h [4, 7]: 7 µM
- IC50 at 48 h [4, 8]: > 25 µM
- IC50 at 48 h [5]: 7 µM
- IC50 at 48 h [6]: > 25 µM
- toxicity towards fibroblasts (Human skin fibroblasts): non-toxic

SMILES: CC(C)(C)OC(=O)N[C@H]1CC[C@@H](n2cc(COc3cccc4cnc(Nc5cc(Cl)cc(Cl)c5)nc34)nn2)CC1 [15b, tert-Butyl ((cis)-4-(4-(((2-((3,5-dichlorophenyl)amino)quinazolin-8-yl)oxy)methyl)-1H-1,2,3-triazol-1-yl)cyclohexyl)carbamate]
- remaining activity at 1 µM (HsDYRK1A): ≥ 100%
- remaining activity at 10 µM (HsDYRK1A): 74%
- remaining activity at 1 µM (MmCLK1): 96%
- remaining activity at 10 µM (MmCLK1): 73%
- remaining activity at 1 µM (Hs_CDK5/p25): ≥ 100%
- remaining activity at 10 µM (Hs_CDK5/p25): 68%
- remaining activity at 1 µM (Hs_CDK9/CyclinT): 92%
- remaining activity at 10 µM (Hs_CDK9/CyclinT): 61%
- remaining activity at 1 µM (Hs_PIM1): 75%
- remaining activity at 10 µM (Hs_PIM1): 73%
- remaining activity at 1 µM (Rn_DYRK1A): 95%
- remaining activity at 10 µM (Rn_DYRK1A): ≥ 100%
- remaining activity at 1 µM (Hs_HASPIN): 89%
- remaining activity at 10 µM (Hs_HASPIN): 58%
- remaining activity at 1 µM (Hs_GSK3β): 93%
- remaining activity at 10 µM (Hs_GSK3β): 57%
- remaining activity at 1 µM (Hs_CK1ε): ≥ 100%
- remaining activity at 10 µM (Hs_CK1ε): 81%
- IC50 at 48 h [1]: 20 µM
- IC50 at 48 h [2]: 21 µM
- IC50 at 48 h [3]: 8 µM
- IC50 at 48 h [4, 7]: > 25 µM
- IC50 at 48 h [4, 8]: > 25 µM
- IC50 at 48 h [5]: > 25 µM
- IC50 at 48 h [6]: > 25 µM
